System: Human dermal papilla cells
Experiment: UVB stress protection of dermal papilla cells, cell viability by Neutral Red Uptake staining
Assay type: cell-based
Conditions: UVB 0.432 J/cm^2; Table 1
Experimental: Human dermal papilla cells were plated into a 96 well flat bottomed clear micro plate at a seeding density of 5000 cells per well. The 24 hour monolayer of cells was exposed to UVB dosages ranging from 0.0072 J/cm^2 to 1.0 J/cm^2 (stress signal) with or without sample (protective formulations) treatment. After exposure, the cells were incubated in a CO2 incubator for 48 hours and developed by NRU (Neutral Red Uptake) staining techniques to analyze cell viability. The absorbance due to viable cells is read at 492 nm in a micro plate reader.

## C[Se]CC[C@H](NC(=O)CC[C@H](N)C(=O)O)C(=O)O [γ-L-glutamyl-L-Selenomethionine]
  Protection of dermal papilla cells, UVB irradiation level 0.432 J/cm^2: No protection

Reference: patent US9498423B2, “Synergistic selenopeptide formulations for the protection of dermal papilla cells” (Sami Labs Limited, priority 2012, dated 2016)
